Data: patent publication EP4660182A1, “NAV1.7- AND/OR NAV1.8-INHIBITING ARYL PYRIDINE COMPOUNDS, PROCESSES FOR THE PREPARATION THEREOF, COMPOSITIONS, USES, METHODS FOR TREATMENT USING SAME, AND KITS” (Eurofarma Laboratórios S.A., priority 2023, dated 2024)

How the values were obtained:
[1] = target: T1, human sodium channels Nav 1.8 (Homo sapiens, UniProt Q9Y5Y9); test: Automated whole-cell voltage-clamp (ScreenPatch 384P) sodium current block, Nav 1.8; type: cell-based; details: CHO cells stably expressing human Nav 1.8; inactivation step -40 mV 8 s, test step 10 mV (TP1A); eight concentrations; exposure at least five minutes; room temperature; read-out: Nav1.8 IC50
T1 construct: expressed in transfected cells
T1 sequence (Q9Y5Y9 whole entry): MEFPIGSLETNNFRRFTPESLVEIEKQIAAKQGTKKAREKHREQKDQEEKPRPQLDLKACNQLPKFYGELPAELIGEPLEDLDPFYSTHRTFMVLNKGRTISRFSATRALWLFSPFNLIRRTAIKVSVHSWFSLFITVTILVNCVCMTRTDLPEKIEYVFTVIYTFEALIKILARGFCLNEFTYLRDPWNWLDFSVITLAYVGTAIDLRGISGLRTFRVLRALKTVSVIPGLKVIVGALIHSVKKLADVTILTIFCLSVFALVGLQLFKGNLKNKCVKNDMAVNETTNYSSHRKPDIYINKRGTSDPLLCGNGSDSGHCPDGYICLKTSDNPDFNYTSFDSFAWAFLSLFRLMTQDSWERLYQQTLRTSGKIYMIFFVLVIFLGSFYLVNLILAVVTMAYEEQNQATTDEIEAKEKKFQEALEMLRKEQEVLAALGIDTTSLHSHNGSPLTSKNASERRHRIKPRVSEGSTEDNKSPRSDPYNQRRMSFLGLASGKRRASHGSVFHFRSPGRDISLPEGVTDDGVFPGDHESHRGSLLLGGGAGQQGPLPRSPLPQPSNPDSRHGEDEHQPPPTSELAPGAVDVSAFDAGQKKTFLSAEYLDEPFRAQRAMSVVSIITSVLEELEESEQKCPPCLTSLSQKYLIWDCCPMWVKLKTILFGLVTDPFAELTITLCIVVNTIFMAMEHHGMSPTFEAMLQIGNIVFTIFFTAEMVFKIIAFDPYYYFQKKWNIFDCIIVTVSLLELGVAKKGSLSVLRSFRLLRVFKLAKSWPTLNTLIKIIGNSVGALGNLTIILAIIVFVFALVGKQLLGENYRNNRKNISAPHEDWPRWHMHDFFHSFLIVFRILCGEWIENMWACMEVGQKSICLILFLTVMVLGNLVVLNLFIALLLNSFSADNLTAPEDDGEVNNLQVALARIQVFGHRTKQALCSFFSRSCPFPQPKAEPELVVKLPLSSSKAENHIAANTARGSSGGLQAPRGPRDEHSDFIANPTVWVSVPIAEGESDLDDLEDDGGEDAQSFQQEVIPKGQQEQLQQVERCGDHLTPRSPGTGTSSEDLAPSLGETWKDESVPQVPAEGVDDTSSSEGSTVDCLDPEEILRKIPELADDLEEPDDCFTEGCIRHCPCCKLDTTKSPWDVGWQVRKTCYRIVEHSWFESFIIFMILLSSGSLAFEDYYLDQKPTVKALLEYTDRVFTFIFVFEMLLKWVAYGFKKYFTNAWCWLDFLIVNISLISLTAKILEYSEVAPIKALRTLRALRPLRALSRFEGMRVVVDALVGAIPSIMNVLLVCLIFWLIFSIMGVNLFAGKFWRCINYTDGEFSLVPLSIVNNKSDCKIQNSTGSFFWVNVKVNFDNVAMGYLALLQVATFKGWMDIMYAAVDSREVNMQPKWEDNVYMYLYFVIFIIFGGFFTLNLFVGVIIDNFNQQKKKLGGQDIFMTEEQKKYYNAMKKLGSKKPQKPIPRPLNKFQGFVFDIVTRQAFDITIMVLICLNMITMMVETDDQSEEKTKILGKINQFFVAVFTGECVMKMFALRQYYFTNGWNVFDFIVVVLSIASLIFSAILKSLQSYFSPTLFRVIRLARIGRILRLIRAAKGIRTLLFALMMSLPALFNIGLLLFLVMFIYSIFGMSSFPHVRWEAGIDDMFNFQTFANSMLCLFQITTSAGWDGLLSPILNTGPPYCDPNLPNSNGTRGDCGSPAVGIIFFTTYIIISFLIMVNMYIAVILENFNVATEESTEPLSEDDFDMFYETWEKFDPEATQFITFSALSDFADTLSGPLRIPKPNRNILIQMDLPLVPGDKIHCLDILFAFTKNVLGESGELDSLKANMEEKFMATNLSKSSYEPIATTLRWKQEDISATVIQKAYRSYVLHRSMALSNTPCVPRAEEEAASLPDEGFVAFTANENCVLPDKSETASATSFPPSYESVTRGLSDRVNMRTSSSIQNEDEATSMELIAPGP
Summary of the method: (§1)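 Stable CHO lines, whole-cell automated patch clamp at room temperature, ≥5 min exposure, eight concentrations. From -100 mV hold, 8 s at -40 mV, 20 ms at -100 mV, then test pulse to 10 mV (Nav 1.8) or 0 mV (Nav 1.7) at 0.05 Hz; peak-current % block fitted for IC50, averaged over repeats.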

[2] = target: T2, human sodium channels Nav 1.7 (Homo sapiens, UniProt Q15858); test: Automated whole-cell voltage-clamp (ScreenPatch 384P) sodium current block, Nav 1.7; type: cell-based; details: CHO cells stably expressing human Nav 1.7; inactivation step -40 mV 8 s, test step 0 mV (TP1A); eight concentrations; exposure at least five minutes; room temperature; read-out: Nav1.7 IC50
T2 construct: expressed in transfected cells
T2 sequence (Q15858 whole entry): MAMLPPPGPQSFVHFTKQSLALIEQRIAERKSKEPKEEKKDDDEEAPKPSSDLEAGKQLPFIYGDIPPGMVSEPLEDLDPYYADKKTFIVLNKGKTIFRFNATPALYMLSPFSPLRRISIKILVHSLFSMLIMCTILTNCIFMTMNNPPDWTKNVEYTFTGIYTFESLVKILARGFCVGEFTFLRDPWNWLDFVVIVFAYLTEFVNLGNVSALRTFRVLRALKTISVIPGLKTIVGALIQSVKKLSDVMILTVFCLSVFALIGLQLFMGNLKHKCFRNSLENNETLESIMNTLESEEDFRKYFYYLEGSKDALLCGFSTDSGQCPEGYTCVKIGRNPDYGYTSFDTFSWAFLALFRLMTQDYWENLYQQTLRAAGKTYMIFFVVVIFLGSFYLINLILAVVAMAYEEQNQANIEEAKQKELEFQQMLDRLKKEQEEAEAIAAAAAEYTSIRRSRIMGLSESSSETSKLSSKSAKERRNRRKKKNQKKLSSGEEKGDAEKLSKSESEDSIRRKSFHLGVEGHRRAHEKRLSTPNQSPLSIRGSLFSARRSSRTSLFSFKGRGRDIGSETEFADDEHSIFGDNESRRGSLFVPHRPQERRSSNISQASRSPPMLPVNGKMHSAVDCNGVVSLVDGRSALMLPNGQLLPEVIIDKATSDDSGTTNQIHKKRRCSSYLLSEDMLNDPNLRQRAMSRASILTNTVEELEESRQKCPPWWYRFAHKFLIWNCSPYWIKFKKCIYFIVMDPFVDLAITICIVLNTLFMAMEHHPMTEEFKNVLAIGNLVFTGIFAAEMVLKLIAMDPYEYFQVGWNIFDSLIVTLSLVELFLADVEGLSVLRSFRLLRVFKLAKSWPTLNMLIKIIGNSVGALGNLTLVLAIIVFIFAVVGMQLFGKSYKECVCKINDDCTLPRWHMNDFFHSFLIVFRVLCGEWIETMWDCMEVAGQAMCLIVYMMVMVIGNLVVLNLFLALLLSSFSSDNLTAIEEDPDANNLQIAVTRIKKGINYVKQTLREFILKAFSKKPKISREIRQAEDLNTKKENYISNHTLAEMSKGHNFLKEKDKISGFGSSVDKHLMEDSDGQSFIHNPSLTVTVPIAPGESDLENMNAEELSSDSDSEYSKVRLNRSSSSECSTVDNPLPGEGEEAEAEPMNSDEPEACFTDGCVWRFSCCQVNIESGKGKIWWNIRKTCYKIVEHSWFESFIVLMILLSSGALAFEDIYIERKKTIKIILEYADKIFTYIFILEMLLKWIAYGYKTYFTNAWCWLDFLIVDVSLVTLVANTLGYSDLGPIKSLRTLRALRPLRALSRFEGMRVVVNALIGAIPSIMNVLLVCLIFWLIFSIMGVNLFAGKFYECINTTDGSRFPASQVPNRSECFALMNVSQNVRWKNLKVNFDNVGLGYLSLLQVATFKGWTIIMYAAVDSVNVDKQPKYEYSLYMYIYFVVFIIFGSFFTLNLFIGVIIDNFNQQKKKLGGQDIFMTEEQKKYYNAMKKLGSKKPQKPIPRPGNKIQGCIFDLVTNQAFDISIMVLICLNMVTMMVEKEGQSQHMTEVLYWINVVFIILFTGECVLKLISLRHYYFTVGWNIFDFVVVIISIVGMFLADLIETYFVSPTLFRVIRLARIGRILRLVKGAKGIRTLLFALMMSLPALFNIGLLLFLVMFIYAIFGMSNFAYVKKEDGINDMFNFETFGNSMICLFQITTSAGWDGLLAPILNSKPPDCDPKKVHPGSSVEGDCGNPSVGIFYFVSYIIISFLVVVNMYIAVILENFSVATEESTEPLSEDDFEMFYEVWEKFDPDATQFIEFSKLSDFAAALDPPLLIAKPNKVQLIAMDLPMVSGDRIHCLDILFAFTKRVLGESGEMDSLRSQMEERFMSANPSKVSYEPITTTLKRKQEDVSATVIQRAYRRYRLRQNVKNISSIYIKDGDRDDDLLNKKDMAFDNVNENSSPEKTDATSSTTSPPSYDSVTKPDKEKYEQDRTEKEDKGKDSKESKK
Summary of the method: as §1

| Compound | IC50 [1] [nM] | IC50 [2] [nM] |
| --- | --- | --- |
| COc1ccc(F)c(/C=N/NC(=O)c2cnc(O)c(-c3ccc(OC(F)(F)F)nc3)n2)c1 [Compound 98, (E)-N'-(2-fluoro-5-methoxybenzylidene)-5-hydroxy-6-(6-(trifluoromethoxy)pyridine-3-yl)pyrazine-2-carbohydrazide] | > 1000 | > 1000 |
| COc1ccc(F)c(/C=N/NC(=O)c2cncc(-c3ccc(OCCO)nc3)n2)c1 [Compound 137, (E)-N'-(2-fluoro-5-methoxybenzylidene)-6-(6-(2-hydroxyethoxy)pyridine-3-yl)pyrazine-2-carbohydrazide] | > 1000 | > 1000 |
| COc1ccc(F)c(/C=N/NC(=O)c2cncc(-c3ccc(S(N)(=O)=O)nc3)n2)c1 [Compound 133, (E)-5-(6-(2-(2-fluoro-5-methoxybenzylidene)hydrazine-1-carbonyl)pyrazine-2-yl)pyridine-2-sulfonamide] | > 1000 | > 1000 |
| CCOc1ccc(-c2cncc(C(=O)N/N=C/c3cc(OC)ccn3)n2)cn1 [Compound 9, (E)-6-(6-ethoxypyridine-3-yl)-N'-((4-methoxypyridine-2-yl)methylene)pyrazine-2-carbohydrazide] | < 500 | > 1000 |
| CCOc1ccc(-c2cncc(C(=O)N/N=C/c3cc(OC)cc(O)c3F)n2)cn1 [Compound 44, (E)-6-(6-ethoxypyridine-3-yl)-N'-(2-fluoro-3-hydroxy-5-methoxybenzylidene) pyrazine-2-carbohydrazide] | > 1000 | > 1000 |
| COc1cnc(F)c(/C=N/NC(=O)c2cncc(-c3ccc(OCC4CNC4)nc3)n2)c1 [Compound 143, (E)-6-(6-(azetidin-3-ylmethoxy)pyridine-3-yl)-N'-((2-fluoro-5-methoxypyridine-3-yl)methylene)pyrazine-2-carbohydrazide] | > 1000 | > 1000 |
| COc1ccc(O)c(/C=N/NC(=O)c2cncc(-c3ccc(OC(F)F)nc3)n2)c1 [Compound 120, (E)-6-(6-(difluoromethoxy)pyridine-3-yl)-N'-(2-hydroxy-5-methoxybenzylidene)pyrazine-2-carbohydrazide] | > 1000 | > 1000 |
| O=C(N/N=C/c1ccncc1)c1cncc(-c2ccc(OC(F)(F)F)nc2)n1 [Compound 87, (E)-N'-(pyridine-4-ylmethylene)-6-(6-(trifluoromethoxy)pyridine-3-yl)pyrazine-2-carbohydrazide] | > 1000 | > 1000 |
| CCOc1ccc(-c2cncc(C(=O)N/N=C/c3ccnn3C)n2)cn1 [Compound 51, (E)-6-(6-ethoxypyridine-3-yl)-N'-((1-methyl-1H-pyrazole-5-yl)methylene)pyrazine-2-carbohydrazide] | > 1000 | > 1000 |
| COc1ccc(F)c(/C=N/NC(=O)c2nc(-c3ccc(OC(F)(F)F)nc3)cnc2O)c1 [Compound 99, (E)-N'-(2-fluoro-5-methoxybenzylidene)-3-hydroxy-6-(6-(trifluoromethoxy)pyridine-3-yl)pyrazine-2-carbohydrazide] | > 1000 | > 1000 |
| CCOc1ccc(-c2cncc(C(=O)N/N=C/c3cc(N4CCC4)ccc3F)n2)cn1 [Compound 38, (E)-N'-(5-(azetidin-1-yl)-2-fluorobenzylidene)-6-(6-ethoxypyridine-3-yl)pyrazine-2-carbohydrazide] | < 500 | > 1000 |
| CCOc1ccc(-c2cncc(C(=O)N(C)/N=C/c3cc(OC)cnc3F)n2)cn1 [Compound 175, (E)-6-(6-ethoxypyridine-3-yl)-N'-((2-fluoro-5-methoxypyridine-3-yl)methylene)-N-methylpyrazine-2-carbohydrazide] | > 1000 | > 1000 |
| CCOc1ccc(-c2cncc(C(=O)N/N=C/c3cc(OC)cnc3O)n2)cn1 [Compound 42, (E)-6-(6-ethoxypyridine-3-yl)-N'-((2-hydroxy-5-methoxypyridine-3-yl)methylene) pyrazine-2-carbohydrazide] | > 1000 | > 1000 |
| COc1cc(/C=N/NC(=O)c2cncc(-c3ccc(OC(F)F)nc3)n2)c(F)cn1 [Compound 106, (E)-6-(6-(difluoromethoxy)pyridine-3-yl)-N'-((5-fluoro-2-methoxypyridine-4-yl)methylene)pyrazine-2-carbohydrazide] | 500 to 1000 | > 1000 |
| CCOc1ccc(-c2cncc(C(=O)N/N=C/c3ccnn3C(C)C)n2)cn1 [Compound 54, (E)-6-(6-ethoxypyridine-3-yl)-N'-((1-isopropyl-1H-pyrazole-5-yl)methylene)pyrazine-2-carbohydrazide] | < 500 | > 1000 |
| COc1cnc(F)c(/C=N/NC(=O)c2ccnc(-c3ccc(OC(F)F)nc3)n2)c1 [Compound 126, (E)-2-(6-(difluoromethoxy)pyridine-3-yl)-N'-((2-fluoro-5-methoxypyridine-3-yl)methylene) pyrimidine-4-carbohydrazide] | 500 to 1000 | > 1000 |
| CCOc1ccc(-c2cncc(C(=O)N/N=C/c3cncn3C(C)C)n2)cn1 [Compound 53, (E)-6-(6-ethoxypyridine-3-yl)-N'-((1-isopropyl-1H-imidazole-5-yl)methylene)pyrazine-2-carbohydrazide] | > 1000 | > 1000 |
| COc1cnc(F)c(/C=N/NC(=O)c2cncc(-c3ccc(OC(F)F)nc3)c2)c1 [Compound 128, (E)-6'-(difluoromethoxy)-N'-((2-fluoro-5-methoxypyridine-3-yl)methylene)-[3,3'-bipyridine]-5-carbohydrazide] | > 1000 | > 1000 |
| CCOc1ccc(-c2cncc(C(=O)N/N=C/c3cncc(OC)c3)n2)cn1 [Compound 18, (E)-6-(6-ethoxypyridine-3-yl)-N'-((5-methoxypyridine-3-yl)methylene)pyrazine-2-carbohydrazide] | < 500 | > 1000 |
| CCOc1ccc(-c2cncc(C(=O)N/N=C/c3ncoc3C)n2)cn1 [Compound 62, (E)-6-(6-ethoxypyridine-3-yl)-N'-((5-methyloxazole-4-yl)methylene)pyrazine-2-carbohydrazide] | 500 to 1000 | > 1000 |
| COc1cnc(F)c(/C=N/NC(=O)c2cncc(-c3ccc(OC(F)F)nc3)n2)c1 [Compound 101, (E)-6-(6-(difluoromethoxy)pyridine-3-yl)-N'-((2-fluoro-5-methoxypyridine-3-yl)methylene)pyrazine-2-carbohydrazide] | < 500 | > 1000 |
| CCOc1ccc(-c2cncc(C(=O)N/N=C/c3nccn3CC)n2)cn1 [Compound 60, (E)-6-(6-ethoxypyridine-3-yl)-N'-((1-ethyl-1H-imidazole-2-yl)methylene)pyrazine-2-carbohydrazide] | 500 to 1000 | > 1000 |
| CCOc1cc(OC)c(-c2cncc(C(=O)N/N=C/c3cc(OC)cnc3F)n2)cn1 [Compound 153, (E)-6-(6-ethoxy-4-methoxypyridine-3-yl)-N'-((2-fluoro-5-methoxypyridine-3-yl)methylene)pyrazine-2-carbohydrazide] | > 1000 | > 1000 |
| CCOc1cc(C)c(-c2cncc(C(=O)N/N=C/c3cc(OC)cnc3F)n2)cn1 [Compound 151, (E)-6-(6-ethoxy-4-methylpyridine-3-yl)-N'-((2-fluoro-5-methoxypyridine-3-yl)methylene)pyrazine-2-carbohydrazide] | < 500 | > 1000 |
